Laboratory results as given in paper PMC5089669, “Biocatalytic Properties and Structural Analysis of Eugenol Oxidase from Rhodococcus jostii RHA1: A Versatile Oxidative Biocatalyst” (Chembiochem, 2016).

How the values were obtained:
[1] = target: T1, Eugenol oxidase (EUGO) (Rhodococcus jostii, UniProt Q0SBK1); experiment: crystal structure; assay type: binding; conditions: covalent; His390 to C8M of flavin
T1 construct: gene RHA1_ro03282; homodimer
T1 sequence (Q0SBK1 1-526): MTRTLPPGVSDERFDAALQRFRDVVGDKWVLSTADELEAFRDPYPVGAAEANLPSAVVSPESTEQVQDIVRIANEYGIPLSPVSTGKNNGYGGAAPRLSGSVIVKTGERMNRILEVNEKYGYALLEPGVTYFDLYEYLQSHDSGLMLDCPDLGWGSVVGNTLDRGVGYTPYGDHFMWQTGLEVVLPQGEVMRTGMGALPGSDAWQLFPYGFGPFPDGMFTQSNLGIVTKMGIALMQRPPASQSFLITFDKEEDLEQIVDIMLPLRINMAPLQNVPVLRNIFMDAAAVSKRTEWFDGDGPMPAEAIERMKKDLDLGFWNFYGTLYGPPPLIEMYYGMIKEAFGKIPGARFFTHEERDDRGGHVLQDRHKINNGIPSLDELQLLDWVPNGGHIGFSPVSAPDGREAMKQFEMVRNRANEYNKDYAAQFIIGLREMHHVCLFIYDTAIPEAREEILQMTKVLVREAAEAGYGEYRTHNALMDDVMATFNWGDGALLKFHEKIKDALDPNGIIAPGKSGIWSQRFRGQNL

[2] = target: T1, Eugenol oxidase (EUGO); experiment: crystal structure of unsoaked native crystals; assay type: binding; conditions: weak inhibitor; density tentatively assigned, co-purified; active site Tyr-Tyr-Arg

SMILES: Cc1cc2nc3c(=O)[nH]c(=O)nc-3n(C[C@H](O)[C@H](O)[C@H](O)COP(=O)(O)OP(=O)(O)OC[C@H]3O[C@@H](n4cnc5c(N)ncnc54)[C@H](O)[C@@H]3O)c2cc1C [FAD]
- crystal structure [1]: covalent bond between His390 (equivalent to His422 of VAO) and the C8M atom

SMILES: O=C(O)c1ccccc1 [benzoate]
- crystal structure of unsoaked native crystals [2]: we found benzoate to be a weak EUGO inhibitor
